Counter-ions that a name gives are not always drawn.
Columns and labels:
[1] = Solubility of bendamustine hydrochloride; format: physicochemical
Text: Therefore it is not surprising that the oral bendamustine compositions, as investigated by Preiss et al. and Weber gave rise to relatively poor bioavailability results and a large inter-individual variability.

[2] = patients, oral doses of 250-350 mg, cited from earlier work
[3] = B6D2F1-mice; cited from earlier work
[4] = Stability of an aqueous solution of bendamustine versus pH; format: physicochemical; settings: pH>5

Structure (SMILES) | Solubility in a range of organic solvents [1] | Solubility in ethanol and methanol [1] | Solubility in water ([1]; pH of 2.0) | Time at which maximal plasma levels were detectable after oral administration ([2]; capsules of 25 mg) | Bioavailability (absorption from the gastro-intestinal tract) [3] | Hydrolytic decomposition in aqueous solution [4] | Oral bioavailability, range ([2]; capsules)
Cn1c(CCCC(=O)O)nc2cc(N(CCCl)CCCl)ccc21 [bendamustine hydrochloride] | slightly or very slightly soluble | good solubility | sparingly soluble | ≤ 1 h | about 40% |  | 
Cn1c(CCCC(=O)O)nc2cc(N(CCCl)CCCl)ccc21 [bendamustine, 4-[5-[bis(2-chloroethyl)amino]-1-methylbenzimidazo-2-yl]butanoic acid] |  |  |  |  |  | the decomposition proceeds rapidly | 25-94%

Source: US10543196B2, “Oral dosage forms of bendamustine” (priority 2008, dated 2020)
